Source: patent US9695155B2, “Herbicidal substituted pyrimidinyloxy benzene compounds” (E. I. DU PONT DE NEMOURS AND COMPANY, priority 2013, dated 2017)

Tests used:
[1] = tested on: lambsquarters; assay: Test D postemergence; type: in vivo, Chenopodium album
How it was run: (§1)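 Species were sown in silt loam for preemergence treatment, or grown in peat-based medium to the 1–4-leaf stage (2–18 cm) for postemergence sprays. Test chemicals were formulated in a non-phytotoxic solvent mixture with surfactant. After 7–21 days in a controlled environment, plants were rated visually against controls on a 0 (no effect) to 100 (complete control) scale.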

[2] = tested on: bromegrass, downy; assay: Test D postemergence; type: in vivo, Bromus tectorum; details: Postemergence, scale 0 to 100 (0 no effect, 100 complete control)
How it was run: as §1

[3] = tested on: wild buckwheat; assay: Test D postemergence; type: in vivo, Polygonum convolvulus; details: Postemergence, scale 0 to 100 (0 no effect, 100 complete control)
How it was run: as §1

[4] = tested on: green foxtail; assay: Test D preemergence; type: in vivo, Setaria viridis
How it was run: as §1

[5] = tested on: wild mustard; assay: Test D postemergence; type: in vivo, Sinapis arvensis
How it was run: as §1

[6] = tested on: windgrass; assay: Test D postemergence; type: in vivo, Apera spica-venti
How it was run: as §1

[7] = tested on: kochia; assay: Test D postemergence; type: in vivo, Kochia scoparia
How it was run: as §1

[8] = tested on: chickweed; assay: Test D preemergence; type: in vivo, Stellaria media
How it was run: as §1

[9] = tested on: blackgrass; assay: Test D preemergence; type: in vivo, Alopecurus myosuroides
How it was run: as §1

[10] = tested on: canarygrass; assay: Test D postemergence; type: in vivo, Phalaris minor
How it was run: as §1

[11] = tested on: galium; assay: Test D postemergence; type: in vivo, Galium aparine
How it was run: as §1

[12] = 62 g ai/ha, scale 0 to 100 (0 no effect, 100 complete control)
[13] = 125 g ai/ha, scale 0 to 100 (0 no effect, 100 complete control)
[14] = 250 g ai/ha, scale 0 to 100 (0 no effect, 100 complete control)
[15] = 31 g ai/ha, scale 0 (no effect) to 100 (complete control)

## Fc1cccc(Oc2ncc(Cl)cn2)c1-n1cc(Br)cn1 [Compound 178, 2-[2-(4-bromo-1H-pyrazol-1-yl)-3-fluorophenoxy]-5-chloropyrimidine]
[1]; Chenopodium album, post-emergence, 16 g ai/ha, scale 0-100, read-out: Plant response rating, Lambsquarters
  pest or weed control at 16 g/ha: 65%
[1]; Chenopodium album, post-emergence, 31 g ai/ha, scale 0 to 100 (0 no effect, 100 complete control), read-out: Plant response rating, Lambsquarters
  pest or weed control at 31 g/ha: 70%
[1]; Chenopodium album, post-emergence, 62 g ai/ha, scale 0 to 100 (0 no effect, 100 complete control), read-out: Plant response rating, Lambsquarters
  pest or weed control at 62 g/ha: 75%
[1]; Chenopodium album, post-emergence, 125 g ai/ha, scale 0 to 100 (0 no effect, 100 complete control), read-out: Plant response rating, Lambsquarters
  pest or weed control at 125 g/ha: 85%
[2]; Bromus tectorum, post-emergence, 16 g ai/ha, read-out: Plant response rating, Bromegrass, Downy
  pest or weed control at 16 g/ha: 5%
[2]; Bromus tectorum, post-emergence, 31 g ai/ha, read-out: Plant response rating, Bromegrass, Downy
  pest or weed control at 31 g/ha: 5%
[2]; Bromus tectorum, post-emergence, 62 g ai/ha, read-out: Plant response rating, Bromegrass, Downy
  pest or weed control at 62 g/ha: 10%
[2]; Bromus tectorum, post-emergence, 125 g ai/ha, read-out: Plant response rating, Bromegrass, Downy
  pest or weed control at 125 g/ha: 20%
[3]; Fallopia convolvulus, post-emergence, 16 g ai/ha, read-out: Plant response rating, Buckwheat, Wild
  pest or weed control at 16 g/ha: 65%
[3]; Fallopia convolvulus, post-emergence, 31 g ai/ha, read-out: Plant response rating, Buckwheat, Wild
  pest or weed control at 31 g/ha: 75%
[3]; Fallopia convolvulus, post-emergence, 62 g ai/ha, read-out: Plant response rating, Buckwheat, Wild
  pest or weed control at 62 g/ha: 75%
[3]; Fallopia convolvulus, post-emergence, 125 g ai/ha, read-out: Plant response rating, Buckwheat, Wild
  pest or weed control at 125 g/ha: 85%
[4]; Setaria viridis, pre-emergence, 16 g ai/ha, scale 0 (no effect) to 100 (complete control), read-out: Plant response rating, Foxtail, Green
  pest or weed control at 16 g/ha: 0%
[4]; Setaria viridis, pre-emergence, 31 g ai/ha, scale 0-100, read-out: Plant response rating, Foxtail, Green
  pest or weed control at 31 g/ha: 0%
[4]; Setaria viridis, pre-emergence, 62 g ai/ha, scale 0-100, read-out: Plant response rating, Foxtail, Green
  pest or weed control at 62 g/ha: 5%
[4]; Setaria viridis, pre-emergence, 125 g ai/ha, scale 0-100, read-out: Plant response rating, Foxtail, Green
  pest or weed control at 125 g/ha: 95%
[5]; Brassica, post-emergence, 16 g ai/ha, scale 0-100, read-out: Plant response rating, Mustard, Wild
  pest or weed control at 16 g/ha: 70%
[5]; Brassica, post-emergence, 31 g ai/ha, scale 0 to 100 (0 no effect, 100 complete control), read-out: Plant response rating, Mustard, Wild
  pest or weed control at 31 g/ha: 75%
[5]; Brassica, post-emergence, 62 g ai/ha, scale 0 to 100 (0 no effect, 100 complete control), read-out: Plant response rating, Mustard, Wild
  pest or weed control at 62 g/ha: 75%
[5]; Brassica, post-emergence, 125 g ai/ha, scale 0 to 100 (0 no effect, 100 complete control), read-out: Plant response rating, Mustard, Wild
  pest or weed control at 125 g/ha: 100%
[6]; Apera spica-venti, post-emergence, 16 g ai/ha, scale 0-100, read-out: Plant response rating, Windgrass
  pest or weed control at 16 g/ha: 5%
[6]; Apera spica-venti, post-emergence, 31 g ai/ha, scale 0 to 100 (0 no effect, 100 complete control), read-out: Plant response rating, Windgrass
  pest or weed control at 31 g/ha: 10%
[6]; Apera spica-venti, post-emergence, 62 g ai/ha, scale 0 to 100 (0 no effect, 100 complete control), read-out: Plant response rating, Windgrass
  pest or weed control at 62 g/ha: 15%
[6]; Apera spica-venti, post-emergence, 125 g ai/ha, scale 0 to 100 (0 no effect, 100 complete control), read-out: Plant response rating, Windgrass
  pest or weed control at 125 g/ha: 20%
[7]; Bassia scoparia, post-emergence, 16 g ai/ha, scale 0-100, read-out: Plant response rating, Kochia
  pest or weed control at 16 g/ha: 60%
[7]; Bassia scoparia, post-emergence, 31 g ai/ha, scale 0 to 100 (0 no effect, 100 complete control), read-out: Plant response rating, Kochia
  pest or weed control at 31 g/ha: 70%
[7]; Bassia scoparia, post-emergence, 62 g ai/ha, scale 0 to 100 (0 no effect, 100 complete control), read-out: Plant response rating, Kochia
  pest or weed control at 62 g/ha: 75%
[7]; Bassia scoparia, post-emergence, 125 g ai/ha, scale 0 to 100 (0 no effect, 100 complete control), read-out: Plant response rating, Kochia
  pest or weed control at 125 g/ha: 85%
[8]; Stellaria media, pre-emergence, 16 g ai/ha, scale 0 (no effect) to 100 (complete control), read-out: Plant response rating, Chickweed
  pest or weed control at 16 g/ha: 0%
[8]; Stellaria media, pre-emergence, 31 g ai/ha, scale 0-100, read-out: Plant response rating, Chickweed
  pest or weed control at 31 g/ha: 50%
[8]; Stellaria media, pre-emergence, 62 g ai/ha, scale 0-100, read-out: Plant response rating, Chickweed
  pest or weed control at 62 g/ha: 85%
[8]; Stellaria media, pre-emergence, 125 g ai/ha, scale 0-100, read-out: Plant response rating, Chickweed
  pest or weed control at 125 g/ha: 90%
[9]; Alopecurus myosuroides, pre-emergence, 16 g ai/ha, scale 0 (no effect) to 100 (complete control), read-out: Plant response rating, Blackgrass
  pest or weed control at 16 g/ha: 5%
[9]; Alopecurus myosuroides, pre-emergence, 31 g ai/ha, scale 0-100, read-out: Plant response rating, Blackgrass
  pest or weed control at 31 g/ha: 10%
[9]; Alopecurus myosuroides, pre-emergence, 62 g ai/ha, scale 0-100, read-out: Plant response rating, Blackgrass
  pest or weed control at 62 g/ha: 35%
[9]; Alopecurus myosuroides, pre-emergence, 125 g ai/ha, scale 0-100, read-out: Plant response rating, Blackgrass
  pest or weed control at 125 g/ha: 85%
[10]; Phalaris minor, post-emergence, 16 g ai/ha, scale 0-100, read-out: Plant response rating, Canarygrass
  pest or weed control at 16 g/ha: 5%
[10]; Phalaris minor, post-emergence, 31 g ai/ha, scale 0 to 100 (0 no effect, 100 complete control), read-out: Plant response rating, Canarygrass
  pest or weed control at 31 g/ha: 15%
[10]; Phalaris minor, post-emergence, 62 g ai/ha, scale 0 to 100 (0 no effect, 100 complete control), read-out: Plant response rating, Canarygrass
  pest or weed control at 62 g/ha: 20%
[10]; Phalaris minor, post-emergence, 125 g ai/ha, scale 0 to 100 (0 no effect, 100 complete control), read-out: Plant response rating, Canarygrass
  pest or weed control at 125 g/ha: 35%
[11]; Galium, post-emergence, 16 g ai/ha, scale 0-100, read-out: Plant response rating, Galium
  pest or weed control at 16 g/ha: 75%
[11]; Galium, post-emergence, 31 g ai/ha, scale 0 to 100 (0 no effect, 100 complete control), read-out: Plant response rating, Galium
  pest or weed control at 31 g/ha: 75%
[11]; Galium, post-emergence, 62 g ai/ha, scale 0 to 100 (0 no effect, 100 complete control), read-out: Plant response rating, Galium
  pest or weed control at 62 g/ha: 75%
[11]; Galium, post-emergence, 125 g ai/ha, scale 0 to 100 (0 no effect, 100 complete control), read-out: Plant response rating, Galium
  pest or weed control at 125 g/ha: 80%

## N#Cc1cccc(Oc2ncc(Cl)cn2)c1-n1cc(-n2ccc(C(F)(F)F)n2)cn1 [Compound 284]
[1]; 31 g ai/ha, scale 0-100
  Plant response rating, Lambsquarters: 85
[1]; [12]
  Plant response rating, Lambsquarters: 98
[1]; [13]
  Plant response rating, Lambsquarters: 100
[1]; [14]
  Plant response rating, Lambsquarters: 100
[2]; 62 g ai/ha
  Plant response rating, Bromegrass, Downy: 40
[2]; 31 g ai/ha
  Plant response rating, Bromegrass, Downy: 30
[2]; 125 g ai/ha
  Plant response rating, Bromegrass, Downy: 45
[2]; 250 g ai/ha
  Plant response rating, Bromegrass, Downy: 45
[3]; 62 g ai/ha
  Plant response rating, Buckwheat, Wild: 100
[3]; 31 g ai/ha
  Plant response rating, Buckwheat, Wild: 100
[3]; 125 g ai/ha
  Plant response rating, Buckwheat, Wild: 100
[3]; 250 g ai/ha
  Plant response rating, Buckwheat, Wild: 100
[4]; [15]
  Plant response rating, Foxtail, Green: 10
[4]; 62 g ai/ha, scale 0-100
  Plant response rating, Foxtail, Green: 5
[4]; 125 g ai/ha, scale 0-100
  Plant response rating, Foxtail, Green: 10
[4]; 250 g ai/ha, scale 0-100
  Plant response rating, Foxtail, Green: 80
[5]; 31 g ai/ha, scale 0-100
  Plant response rating, Mustard, Wild: 100
[5]; [12]
  Plant response rating, Mustard, Wild: 100
[5]; [13]
  Plant response rating, Mustard, Wild: 100
[5]; [14]
  Plant response rating, Mustard, Wild: 100
[6]; 31 g ai/ha, scale 0-100
  Plant response rating, Windgrass: 20
[6]; [12]
  Plant response rating, Windgrass: 20
[6]; [13]
  Plant response rating, Windgrass: 30
[6]; [14]
  Plant response rating, Windgrass: 30
[7]; 31 g ai/ha, scale 0-100
  Plant response rating, Kochia: 100
[7]; [12]
  Plant response rating, Kochia: 100
[7]; [13]
  Plant response rating, Kochia: 100
[7]; [14]
  Plant response rating, Kochia: 100
[8]; [15]
  Plant response rating, Chickweed: 10
[8]; 62 g ai/ha, scale 0-100
  Plant response rating, Chickweed: 15
[8]; 125 g ai/ha, scale 0-100
  Plant response rating, Chickweed: 20
[8]; 250 g ai/ha, scale 0-100
  Plant response rating, Chickweed: 30
[9]; [15]
  Plant response rating, Blackgrass: 0
[9]; 62 g ai/ha, scale 0-100
  Plant response rating, Blackgrass: 10
[9]; 125 g ai/ha, scale 0-100
  Plant response rating, Blackgrass: 35
[9]; 250 g ai/ha, scale 0-100
  Plant response rating, Blackgrass: 65
[10]; 31 g ai/ha, scale 0-100
  Plant response rating, Canarygrass: 20
[10]; [12]
  Plant response rating, Canarygrass: 20
[10]; [13]
  Plant response rating, Canarygrass: 25
[10]; [14]
  Plant response rating, Canarygrass: 25
[11]; 31 g ai/ha, scale 0-100
  Plant response rating, Galium: 70
[11]; [12]
  Plant response rating, Galium: 85
[11]; [13]
  Plant response rating, Galium: 85
[11]; [14]
  Plant response rating, Galium: 95
